Laboratory results from ChEMBL document CHEMBL1131680, “Structure-based design of diaminopyranosides as a novel inhibitor core unit of HIV proteases” (Bioorg Med Chem Lett, 1999).

What follows are compounds tested against Human immunodeficiency virus type 1 protease (Human immunodeficiency virus 1, UniProt Q72874) (assay: Inhibitory concentration required to inhibit hydrolytic activity of recombinant HIV-1 PR (human immunodeficiency virus protease)).
In the case of NC1C(OCc2ccccc2)OC(COC(=O)Nc2ccccc2)C(OCc2ccccc2)C1N (stereo not drawn), the IC50 is reported as 28 µM.
With NC1C(OCc2ccccc2)OC(CO)C(OCc2ccccc2)C1N (stereo not drawn) the IC50 was 205 µM.
In the case of [N-]=[N+]=NC1C(N)C(OCc2ccccc2)OC(CO)C1OCc1ccccc1 (stereo not drawn), the IC50 is reported as > 1 µM.
